Results filed as inconclusive are left out. Calls of active or inactive are those of the source. The rule behind the calls is not given here.
Target: S. cerevisiae eIF2B mutant, luciferase reporter luminescence
Assay: eIF2B reporter inhibitors in yeast strains, dose response, S. cerevisiae, mutant, wild-type, luminescence, growth (AID 792)
[1] = S. cerevisiae wild-type, luminescence
[2] = measured here: mutant yeast growth

SMILES	IC50	IC50 [1] [µM]	IC50 [2] [µM]
CCN1CCN(c2cc(-c3ccccc3)nc3cc(-c4cccc(F)c4)nn23)CC1	inactive	6.87	8.98
Cc1cccc2cc3c(NC(=O)c4ccccn4)nn(C)c3nc12	> 100 µM (inactive)	–	64.2
O=C(NCCC1=CCCCC1)c1ccc(=O)oc1	> 100 µM (inactive)	–	> 100
Cc1ccc(C(=O)Nc2ncc(C)s2)o1	inactive	17.6	> 100
Cc1cc(C)c(NC(=O)CSc2nnc(Cc3cccn3C)n2-c2ccc(F)cc2)c(C)c1	> 100 µM (inactive)	–	> 100
O=c1c(-c2cc3ccccc3o2)[n+]([O-])c2ccccc2n1OCc1ccccn1	> 100 µM (inactive)	–	> 100
CCn1c(CNc2nc3ccccc3n2C(C)C)nc2ccccc21	> 100 µM (inactive)	–	> 100
COc1cccc(Oc2cn[nH]c2-c2ccc(OC)cc2O)c1	inactive	44.1	40.8
O=C(N1CCOCC1)N1c2ccccc2CC(N2CCOCC2)c2ccccc21 (configuration not stated)	> 100 µM (inactive)	–	> 100
CCCCNC(=O)OC1CCS(=O)(=O)C1 (configuration not stated)	> 100 µM (inactive)	–	> 100
CCOC(=O)c1oc2cc(O)ccc2c(=O)c1-c1csc(C)n1	> 100 µM (inactive)	–	> 100
CC(=O)c1cccc(-n2nnnc2SCC(=O)Nc2cccc(NC(=O)c3ccco3)c2)c1	> 100 µM (inactive)	–	> 100
CN(C)CCN1C(=O)C(O)=C(C(=O)c2ccco2)C1c1ccccc1F (configuration not stated)	> 100 µM (inactive)	–	> 100
COc1ccccc1CNC(=O)CN(c1ccc(C)cc1)S(=O)(=O)c1c(C)nn(C)c1C	> 100 µM (inactive)	–	> 100
CC(=O)c1ccc(NC(=O)c2noc3c2CCCCC3)cc1	> 100 µM (inactive)	–	> 100
CSc1ccccc1NC(=O)c1noc2c1CCC2	> 100 µM (inactive)	–	> 100
O=C(Nc1ccccc1N1CCN(C(=O)c2ccccc2)CC1)c1cc2ccccc2o1	> 100 µM (inactive)	–	> 100
Cc1cccc(Cn2cnc3c(nnn3Cc3ccc(Cl)cc3)c2=O)c1	> 100 µM (inactive)	–	> 100
CN1C(=O)N(C)C2(c3ccccc3)NC(=O)NC12c1ccccc1 (configuration not stated)	> 100 µM (inactive)	–	> 100
NC(=O)CSc1nnc(-c2ccco2)n1N	> 100 µM (inactive)	–	> 100
C=CCN1CC(c2nc3ccccc3n2Cc2cccc3ccccc23)CC1=O (configuration not stated)	> 100 µM (inactive)	–	> 100

SMILES	IC50	IC50 [1] [µM]	IC50 [2] [µM]
O=C(NCc1ccc(F)cc1)c1c(O)c2cccc3c2n(c1=O)CCC3	> 100 µM (inactive)	–	> 100
Fc1ccc2c(c1)nnn2C1CCN(Cc2nnnn2C2CCCCC2)CC1	> 100 µM (inactive)	–	> 100
COc1ccccc1Nc1nc(C)cc(C)c1C(N)=O	> 100 µM (inactive)	–	> 100
O=C(Oc1ccc2c(c1)CCC2)N1CCOCC1	> 100 µM (inactive)	–	> 100
Cc1cc(C)cc(NS(=O)(=O)c2ccc3[nH]c(=O)[nH]c3c2)c1	> 100 µM (inactive)	–	> 100
Cc1cccc2nc(CSc3nnc4ccccn34)cn12	> 100 µM (inactive)	–	> 100
CC(=O)Nc1cc(C(F)(F)F)ccc1OCCOc1ccccc1	> 100 µM (inactive)	–	> 100
Oc1ccc2ccc3cccc[n+]3c2c1	> 100 µM (inactive)	> 100	> 100
Cc1cccc(N2C(=O)C3C4C=CC(C4)C3C2=O)c1 (configuration not stated)	> 100 µM (inactive)	–	> 100
Nc1cc2c(cc1C(=O)c1ccccc1)OCCO2	> 100 µM (inactive)	–	> 100
CCC(C)(C(=O)NC1CCCCC1)N(Cc1ccco1)C(=O)c1ccc2c(c1)OCO2 (configuration not stated)	> 100 µM (inactive)	–	> 100
CCCOCC1CC2(CC(C)(c3csc(N)n3)OC2=O)C(=O)O1 (configuration not stated)	> 100 µM (inactive)	–	> 100
COc1ccc(C2=CC(c3sccc3C)n3nnnc3N2)cc1 (configuration not stated)	> 100 µM (inactive)	–	> 100
Nc1nnnn1/N=C/c1ccc(O)cc1	inactive	2.78	> 100
CCOC(=O)N1CCN(C(=O)c2ccc(N3CCCC3=O)cc2)CC1	> 100 µM (inactive)	–	> 100
O=C(CCC1COc2ccccc2O1)Nc1ccc(Cl)cn1 (configuration not stated)	> 100 µM (inactive)	–	> 100
COC(=O)c1cc2occc2n1CC(=O)Nc1ccc(OC)c(OC)c1	> 100 µM (inactive)	–	> 100
COCCn1c(-c2ccccc2)cc(C(=O)O)c1C	> 100 µM (inactive)	–	> 100
CCCOc1ccc(C(=O)N2CCCc3ccccc32)cc1	> 100 µM (inactive)	–	> 100
CC(=O)c1cnc2c(-c3ccc(Cl)cc3)c(C)nn2c1C	> 100 µM (inactive)	–	> 100
O=C(NCCc1ccccn1)c1cccc(S(=O)(=O)N2CCCCCC2)c1	> 100 µM (inactive)	–	> 100

SMILES	IC50	IC50 [1] [µM]	IC50 [2] [µM]
O=C(CSc1nccc(=O)[nH]1)N1CCCc2ccccc21	> 100 µM (inactive)	–	> 100
Cn1c(SCc2ccc(F)cc2)nnc1-c1cccs1	> 100 µM (inactive)	–	> 100
CCN(CC)c1ncnc2sc(C(=O)N3CCN(c4ccccc4)CC3)c(C)c12	> 100 µM (inactive)	–	> 100
Cc1cc2c(cc1C)CSC(c1ccc(O)cc1)SC2	> 100 µM (inactive)	–	> 100
Nn1cnnc1SC1CCCCC1NS(=O)(=O)c1ccccc1 (configuration not stated)	> 100 µM (inactive)	–	> 100
Cc1ccccc1C(=O)Nc1ccccn1	> 100 µM (inactive)	–	> 100
COC(=O)c1cn(CCOc2ccccc2)c2ccccc12	> 100 µM (inactive)	–	> 100
CCOC(=O)CSc1nncc2ccc(OC)c(OC)c12	> 100 µM (inactive)	–	> 100
COC(=O)CSc1nnc2n(-c3ccc(OC)cc3)c(=O)c3c4c(sc3n12)CCCCC4	> 100 µM (inactive)	–	87.1
CCN(CC)c1ccc(NC(=O)c2cccc(OC)c2)c(C)c1	inactive	> 100	> 100
N#Cc1c(N2CCOCC2)nc(-c2ccco2)c2c1CCCC2	> 100 µM (inactive)	–	> 100
COc1ccc(CC(=O)Nc2ccc(N3CCN(c4ccc(OC)cc4)CC3)c(C#N)c2)cc1	> 100 µM (inactive)	–	> 100
CCOC(=O)C1=C(C)NC(SCc2cc(=O)[nH][nH]2)=C(C#N)C1c1cccs1 (configuration not stated)	> 100 µM (inactive)	–	> 100
O=C(NC1CCCC1)C(c1ccsc1)N(Cc1ccco1)C(=O)Cc1cccs1 (configuration not stated)	> 100 µM (inactive)	–	> 100
CC(C)Oc1ccc(C(=O)O)c(C(=O)O)c1	> 100 µM (inactive)	–	> 100
COC(=O)c1nn(-c2ccc3c(c2)CCN3C(C)=O)cc1O	inactive	3.61	> 100
O=C1c2ccncc2C(=O)N1C1CCCCC1	> 100 µM (inactive)	–	> 100
C=CCc1c(C)nc(SC(C)C)[nH]c1=O	> 100 µM (inactive)	–	> 100
O=C(Nc1cccnc1)c1cc(-c2ccco2)on1	> 100 µM (inactive)	–	> 100
O=C(Cc1ccccc1)N(c1ccc(F)cc1)C1C=CS(=O)(=O)C1 (configuration not stated)	> 100 µM (inactive)	–	> 100
O=C(NC1CCCC1)C(c1ccccc1)N(Cc1ccco1)C(=O)Cc1cccs1 (configuration not stated)	> 100 µM (inactive)	–	> 100

SMILES	IC50	IC50 [1] [µM]	IC50 [2] [µM]
CC(C)OC(=O)CCc1nc2ccccc2[nH]c1=O	> 100 µM (inactive)	–	> 100
Cc1ccc(CN(CC2CCCO2)C(=O)CN2C(=O)C(C(C)C)Oc3ccccc32)o1 (configuration not stated)	inactive	> 100	14.2
CCN(CC(N)=O)S(=O)(=O)c1ccc(Br)cc1	> 100 µM (inactive)	–	> 100
Cc1ccc2nc(/C(C#N)=C\c3ccc(N4CCOCC4)o3)[nH]c2c1	> 100 µM (inactive)	–	> 100
CCCCCOC(=O)Nc1nnc(CCC)s1	> 100 µM (inactive)	–	> 100
Cc1cc(=O)oc2ccc(OCC(=O)N3CCc4ccccc43)cc12	> 100 µM (inactive)	–	> 100
CNc1nc2ccccc2n1/N=C/c1cccc(OC)c1OC	> 100 µM (inactive)	–	> 100
O=C1CC(O)(C(F)F)Oc2ccc3ccccc3c21 (configuration not stated)	> 100 µM (inactive)	–	> 100
CCOC(=O)N1CCN(C(=O)CN(Cc2ccc(Cl)cc2)S(=O)(=O)c2ccc(C)cc2)CC1	> 100 µM (inactive)	–	> 100
Nc1nc(NCc2ccccc2)nc(-c2ccccc2)n1	> 100 µM (inactive)	–	> 100
CCOc1ccccc1NC(=O)c1ccccc1-c1nc(-c2ccccc2)no1	> 100 µM (inactive)	–	> 100
O=C(CC(Nc1ccccc1)C(=O)O)c1ccccc1 (configuration not stated)	> 100 µM (inactive)	–	> 100
CCc1ccc2oc(-c3cccc(NC(=O)c4cccnc4)c3)nc2c1	> 100 µM (inactive)	–	> 100
COc1ccccc1CC(=O)N1CCN(c2cccc(C(F)(F)F)c2)CC1	> 100 µM (inactive)	–	> 100
CN1CCc2nc(SCCOc3ccccc3)c(C#N)cc2C1	> 100 µM (inactive)	–	> 100
CCC(C)(C)n1nnnc1CN(Cc1cccs1)Cc1cc2cc(OC)ccc2[nH]c1=O	> 100 µM (inactive)	–	> 100
Cc1ccc2c(c1)N(CC(=O)NCc1cccnc1)C(=O)CO2	> 100 µM (inactive)	–	> 100
COc1ccccc1-c1nnc2sc(COc3ccc(Cl)cc3)nn12	> 100 µM (inactive)	–	> 100
Cc1ccc2c(c1)N(CC(=O)NC1CCC(C)CC1)C(=O)CO2 (configuration not stated)	> 100 µM (inactive)	–	> 100
